Data on 15 molecules can be found in patent US8586707B2, “Stapled peptides and method of synthesis” (The Research Foundation of State University of New York, priority 2008, dated 2013).

Data set [1] in a line: Far-UV circular dichroism, percent helicity. As to conditions: CD in trifluoroethanol at 25 °C, from mean residue ellipticity at 208 nm. The class given is physicochemical. The method, then: (§1) To examine the stapling effect on peptide secondary structure, we measured the far-UV circular dichroism (CD) spectra of the stapled peptides in trifluoroethanol (TFE) at 25° C. Because the tetrazoles in the linear peptides are labile to the CD scanning light (short wavelength UV light), we prepared a photo stable control peptide, Ac-Val-Lys(Ac)-Leu-Aib-Val-Lys(Ac)-Leu-NH2 (SEQ ID NO:1) (17; Ac=acetyl; Aib=amino isobutyric acid) as a linear surrogate. […] The percent helicity of 17 was determined to be 53% on the basis of mean residue ellipticity (MRE) at 208 nm. […] To further characterize the stability derived from the stapling, we measured thermal melting point (Tm) of the most helical peptide 16 by following its ellipticity over a wide temperature range (20-85° C.), and compared it to that of the linear photo stable peptide 17 (FIG. 5 (b)).
Circular Dichroism: CD spectra were obtained using 1-mm pathlength cuvettes on a JASCO J-715 instrument at 25° C. The instrument scan range was set at 190 to 250 nm. The scan rate was set at 50 nm/min, the response time was set at 2 sec, and the bandwidth was set at 1 nm. The spectra were the averages of two scans. For the measurement of percent helicity, peptides were dissolved in 100% trifluoroethanol (TFE); for the Tm determination, 20% TFE/H2O were used as the solvent. The percent helicity was calculated by using the following equation: […]
(Circular dichroism is the unequal absorption of left and right circularly polarised light.)

For another data set, the system named is HeLa cells. The data set is described as follows: Cellular uptake study by fluorescent microscopy. The class given is cell-based. Particulars: 100 μM peptide, 4 hours, 37 °C, DAPI filter. The method, then: To assess whether the stapled peptides are capable of penetrating cell membrane, we took advantage of the intrinsic fluorescence of the pyrazoline cross-linkers and monitored the stapled peptide cellular uptake by fluorescent microscopy. […] After incubating HeLa cells with 100 μM of peptide 13 for 4 hours in a 37° C. CO2 incubator, the cells were washed twice with PBS before fixing with 4% paraformaldehyde and the subcellular distribution of peptide 13 was examined by fluorescent microscopy.
Cellular Uptake Study: HeLa cells cultured on cover slips were treated with 100 μM of peptide 13 or control peptide 18 in 2% DMSO serum-free DMEM medium for 4 hr in a 37° C., 5% CO2 incubator. In preparation for fixation, medium was aspirated and the cells were washed twice with PBS. The cover slips were treated to a freshly prepared 4% paraformaldehyde/PBS solution for 10˜15 min, washed twice with PBS, and quenched with 50 mM NH4Cl for 10 minutes. After washing with PBS twice, the cover-slip was flipped and placed on top of microscopy glass containing in situ-frame and PBS buffer to make a sealed sample chamber. The images were acquired on a Zeiss Axioimager motorized fluorescence microscope. DAPI filter (ex 365 nm, em 445±25 nm) was used in acquiring fluorescence images. All image acquisitions and processing were performed under identical conditions.

Data set [2] can be described thus: Thermal melting point by CD ellipticity over 20-85 °C. The class given is physicochemical. As to conditions: for melting temperature (Tm): 100 μM peptide in 20% TFE/H2O, 20-85 °C. The method, then: as §1
Circular Dichroism: CD spectra were obtained using 1-mm pathlength cuvettes on a JASCO J-715 instrument at 25° C. The instrument scan range was set at 190 to 250 nm. The scan rate was set at 50 nm/min, the response time was set at 2 sec, and the bandwidth was set at 1 nm. The spectra were the averages of two scans. For the measurement of percent helicity, peptides were dissolved in 100% trifluoroethanol (TFE); for the Tm determination, 20% TFE/H2O were used as the solvent. The percent helicity was calculated by using the following equation:
[formula] The melting temperature (Tm) was determined by following a reported procedure. Briefly, a sample of 100 μM peptide in 20% TFE/H2O in an 1-mm pathlength cuvette was scanned at various temperatures from 20° C. to 85° C. (5-degree intervals) with an equilibration time of 3 min and a heating rate of 60° C./hr. The θ222 MRE data was normalized by setting the maximum θ222 MRE to 100% and the minimum θ222 MRE to 0.

The conditions of data set [3]: the molecule shown is the open-chain precursor, other bond, hv 302 nm (tetrazole-alkene photocycloaddition).
For data set [4] the following is noted: the molecule shown is the open-chain precursor, other bond, 28-membered ring, hv 302 nm, 10 min, 0.15 mM.
[5] abbreviates: 28-membered ring, MeCN, 0.15 mM.

Where two headings read alike, the source gives them in different places. *1 amine or outer side, *2 acyl side, *3 side chain or, on linkers, in order; H or OH if unused. Where a SMILES comes first, the peptide text is derived from it. Bridges are numbered along the chain shown (N, C = ends). [ ]: non-standard residue; d: D form. The star is where a group is joined. X1 = CN(C)c1ccc(N2N=C(C(=O)[*:2])CC2(C)C(=O)[*:1])cc1; X5 = COc1ccc(N2N=C(C(=O)[*:2])CC2(C)C(=O)[*:1])cc1; X3 = COc1ccc(N2N=C(C(=O)[*:2])CC2C(=O)[*:1])cc1; X4 = CC1(C(=O)[*:1])CC(C(=O)[*:2])=NN1c1ccccc1; X2 = COc1ccc(N2N=C(C(=O)*)CC2C(N)=O)cc1; Aib = CC(C)(N)C(=O)O

In data set [1], `CC(=O)N[C@H](C(=O)N[C@H]1CCCCNC(=O)C2(C)CC(=NN2c2ccccc2)C(=O)NCCCC[C@@H](C(=O)N[C@@H](CC(C)C)C(N)=O)NC(=O)[C@H](C(C)C)NC(=O)C(C)(C)NC(=O)[C@H](CC(C)C)NC1=O)C(C)C` (some centres unmarked) [Peptide 11] (Ac-VKL[Aib]VKL-NH2; linker 2-6 via X4) displayed a percent helicity of 51%. With `COc1ccc(N2N=C3CC2C(=O)NCCCC[C@H](NC(=O)[C@@H](NC(C)=O)C(C)C)C(=O)N[C@@H](CC(C)C)C(=O)NC(C)(C)C(=O)N[C@@H](C(C)C)C(=O)N[C@H](C(=O)N[C@@H](CC(C)C)C(N)=O)CCCCNC3=O)cc1` (some centres unmarked) [Peptide 13] (Ac-VKL[Aib]VKL-NH2; linker 2-6 via X3), the “cellular uptake (intracellular fluorescence)” value in the data set with HeLa cells is “punctuated fluorescence was observed in discrete cytoplasmic regions within HeLa cells”. For `COc1ccc(N2N=C3CC2(C)C(=O)NCCCC[C@H](NC(=O)[C@@H](NC(C)=O)C(C)C)C(=O)N[C@@H](CC(C)C)C(=O)NC(C)(C)C(=O)N[C@@H](C(C)C)C(=O)N[C@H](C(=O)N[C@@H](CC(C)C)C(N)=O)CCCCNC3=O)cc1` (some centres unmarked) [Peptide 14] (Ac-VKL[Aib]VKL-NH2; linker 2-6 via X5), the percent helicity in data set [1] worked out at 51%. As for `CC(=O)N[C@H](C(=O)N[C@H]1CCCCNC(=O)C2(C)CC(=NN2c2ccc(N(C)C)cc2)C(=O)NCCCC[C@@H](C(=O)N[C@@H](CC(C)C)C(N)=O)NC(=O)[C@H](C(C)C)NC(=O)C(C)(C)NC(=O)[C@H](CC(C)C)NC1=O)C(C)C` (some centres unmarked) [Peptide 16] (Ac-VKL[Aib]VKL-NH2; linker 2-6 via X1), the “melting temperature (Tm)” value in data set [2] is 63 °C. Further, in data set [2] (stapled 16 vs linear 17), the “increase in Tm versus linear peptide 17” value was determined as 15 °C. The percent helicity in data set [1] was determined as 64%. Turning to `CC(=O)NCCCC[C@H](NC(=O)[C@@H](NC(C)=O)C(C)C)C(=O)N[C@@H](CC(C)C)C(=O)NC(C)(C)C(=O)N[C@H](C(=O)N[C@@H](CCCCNC(C)=O)C(=O)N[C@@H](CC(C)C)C(N)=O)C(C)C` [Peptide 17, Ac-Val-Lys(Ac)-Leu-Aib-Val-Lys(Ac)-Leu-NH2, reference compound] (Ac-VK(Ac)L[Aib]VK(Ac)L-NH2), the “melting temperature (Tm)” value in data set [2] is 48 °C. The same molecule displayed a percent helicity in data set [1] of 53%. As for `COc1ccc(N2N=C(C(=O)NCCCC[C@H](NC(=O)[C@@H](NC(=O)C(C)(C)NC(=O)[C@H](CC(C)C)NC(=O)[C@H](CCCCNC(C)=O)NC(=O)[C@@H](NC(C)=O)C(C)C)C(C)C)C(=O)N[C@@H](CC(C)C)C(N)=O)CC2C(N)=O)cc1` (stereo partly drawn) [Peptide 18, Ac-Val-Lys(Pyr)-Leu-Aib-Val-Lys(Ac)-Leu-NH2, reference compound] (Ac-VK(Ac)L[Aib]VK(X2)L-NH2), the “cellular uptake (intracellular fluorescence)” value in the data set on HeLa cells is recorded as “did not yield cellular fluorescent pattern”.

In turn, “Ac-Leu-Thr-Phe-Lys(methacryloyl)-His-Tyr-Trp-Ala-Gln-Leu-Lys(N-(4-methoxy)phenyl-tetrazole)-Ser-NH2” returned a ring closure, yield after HPLC in data set [3] of 74%. As for “Ac-Val-Lys(acryloyl)-Leu-Aib-Val-Lys(2-(4-dimethylaminophenyl)-2H-tetrazole-5-carbonyl)-Leu-NH2?”, in data set [3] (setting [5]), the ring closure, yield after HPLC was determined as 64%. In data set [3] (setting [5]), “Ac-Val-Lys(acryloyl)-Leu-Aib-Val-Lys(2-(4-methoxyphenyl)-2H-tetrazole-5-carbonyl)-Leu-NH2?” gave a ring closure, yield after HPLC of 64%. For the molecule “Ac-Val-Lys(methacryloyl)-Leu-Aib-Val-Lys(2-(4-dimethylaminophenyl)-2H-tetrazole-5-carbonyl)-Leu-NH2?”, the ring closure, conversion in data set [4] (DCM) is 43%; in data set [4] (EtOAc) it was 86%; in data set [4] (EtOH), 92%; in data set [4] (MeCN), 87%; in data set [4] (iPrOH) it was 88%. The molecule also had a ring closure, yield after HPLC in data set [3] (setting [5]) of 94%. Molecule “Ac-Val-Lys(methacryloyl)-Leu-Aib-Val-Lys(2-(4-methoxyphenyl)-2H-tetrazole-5-carbonyl)-Leu-NH2?” gave a ring closure, yield after HPLC in data set [3] (setting [5]) of 53%. Same read-out and setting: with “Ac-Val-Lys(methacryloyl)-Leu-Aib-Val-Lys(2-phenyl-2H-tetrazole-5-carbonyl)-Leu-NH2?” the figure was 41%. As for “Ac-Val-Lys(methacryloyl)-Leu-Aib-Val-Lys(4-(2-phenyl-2H-tetrazol-5-yl)benzoyl)-Leu-NH2?”, the ring closure, yield after HPLC in data set [3] (32-membered ring, MeCN, 0.15 mM) came out at 38%.

“Ac-Val-Orn(methacryloyl)-Leu-Aib-Val-Orn(2-phenyl-2H-tetrazole-5-carbonyl)-Leu-NH2?” had a ring closure, yield after HPLC in data set [3] (26-membered ring, MeCN, 0.15 mM) of 15%. “Ac-Val-Orn(methacryloyl)-Leu-Aib-Val-Orn(4-(2-phenyl-2H-tetrazol-5-yl)benzoyl)-Leu-NH2?” had a ring closure, yield after HPLC in data set [3] (30-membered ring, MeCN, 0.15 mM) of 15%.
